pIC50: −log10 of the molar value. Counter-ions that a name gives are not always drawn.
Experiments:
A549 lung cancer cells = assay: Cell proliferation, 72 h IC50 (Table 3); assay type: cell-based, human; settings: read-out: 72 h IC50, 3-5 separate experiments
A2780 Ovarian = assay: Cell proliferation, 72 h IC50 (Table 3); assay type: cell-based, human; settings: read-out: 72 h IC50, 3-5 separate experiments
2780CP Ovarian = assay: Cell proliferation, 72 h IC50 (Table 3); assay type: cell-based, human; settings: read-out: 72 h IC50, 3-5 separate experiments
HCT116 Colon = assay: Cell proliferation, 72 h IC50 (Table 3); assay type: cell-based, human; settings: read-out: 72 h IC50, 3-5 separate experiments
Panc-02 cells = assay: CRT translocation to the cell membrane, flow cytometry (percent CRT+ cells); assay type: cell-based, murine
Procedure: Calreticulin (CRT) translocation from the ER to the cell membrane is a critical mechanistic step in ICD induction. To correlate the findings of ER and mitochondrial stress to ICD induction, murine cancer cell lines (Panc-02 pancreas and CT26 colon) were treated with 3 and assessed for cell membrane CRT translocation (FIG. 4).

CT26 Colon = settings: read-out: 72 h IC50, 3-5 separate experiments
[1] = tested on: CT26 mouse colorectal cancer cells; settings: immunized with CT26 cells treated with oxaliplatin at 150 μM; challenged after 7 days
[2] = tested on: A549 human lung cancer cell line; assay: Cell proliferation MTT assay, Example 4 (Table 8); assay type: cell-based; settings: 72 h treatment, max DMSO 0.1%
L929 fibroblasts = assay: Cell proliferation, 72 h IC50 (Table 3); assay type: cell-based, human
Description: The initial rationale for preparing complexes 1-3 (shown below) involved a systems approach to circumventing the antioxidant network that helps give solid tumors their resiliency.

[3] = tested on: A549 human lung cancer cell line; assay: Cell proliferation MTT assay, Example 3 (Table 5); assay type: cell-based; settings: 72 h incubation
Procedure: According to previous literature reports, BSA binding can reduce the cytotoxicity of Au(I) bis-NHC complexes (Zou et al., 2014). […] The non-conjugated alcohol 1 and Auranofin were used as benchmark comparisons. Incubation was carried out for 72 h in all cases. […] A549 cells were harvested and seeded into 96-well culture plates (Costar 07-200-90) in 100 μL of culture medium. The cells were allowed to incubate overnight at 37° C. in the presence of 5% CO2. A549 cells were seeded at a density of 1500 cells/well. […] To each well of a 96 well plate was added 100 μL of the appropriate solution. […] After removal of the medium, the resulting formazan was dissolved in […] DMSO and the respective absorbances were measured at 560-650 nm using a microplate reader (Molecular Devices, Sunnyvale, CA). Absorbance values were corrected for background and then normalized to wells containing untreated cells to allow for plate-to-plate comparisons. The resulting dose response curves were subjected to linear regression analysis (Origin by OriginLab, Inc.) for determination of IC50 values. […] Maximum concentration of DMSO used is 0.1%. This concentration of DMSO was determined to be non-toxic in separate control experiments. […] The stock solution was further diluted 10-fold in RPMI media such that the maximum drug concentration used was 10 μM for the dose dependent MTT assay.

| SMILES | pIC50 (A549 lung cancer cells) | pIC50 (A2780 Ovarian) | pIC50 (2780CP Ovarian) | pIC50 (HCT116 Colon) | also measured |
| --- | --- | --- | --- | --- | --- |
| O=C1[O][Pt]2([NH][C@@H]3CCCC[C@H]3[NH]2)[O]C1=O [Oxaliplatin] | 6.01 | 6.82 | 6.52 | 6.30 | concentration needed to achieve the same CRT+ signal (Panc-02 cells; same CRT+ signal as 3 at 1 μM): 300 µM; pIC50 (CT26 Colon): 5.70; mice remaining tumor-free at the end of the study [1]: 80% |
| COc1cccc2c1C(=O)c1c(O)c3c(c(O)c1C2=O)C[C@@](O)(C(=O)CO)C[C@@H]3O[C@H]1C[C@H](N)[C@H](O)[C@H](C)O1 [Doxorubicin•HCl, Doxorubicin] | – | – | – | – | pIC50 ([2]; Homo sapiens): 6.88 |
| N.N.[Cl][Pt][Cl] [Cisplatin] | 5.99 | 6.48 | 5.15 | – | – |
| CC(=O)OC[C@H]1O[C@@H]([S-])[C@H](OC(C)=O)[C@@H](OC(C)=O)[C@@H]1OC(C)=O.CCP(CC)CC.[Au+] [Auranofin] | 5.78 | – | – | 5.89 | cancer selectivity (L929 fibroblasts; L929 fibroblasts in comparison to A549 lung cancer cells): 2.5 fold; pIC50 (L929 fibroblasts; read-out: 72 h IC50, L929 Fibroblasts, 72 h, 3-5 separate experiments): 5.38; CRT translocation to the cell membrane (Panc-02 cells; flow cytometry, 3 at 1 μM, auranofin under the same conditions): ineffective; pIC50 [3]: 5.65; pIC50 [2]: 5.66 |

Reference: patent US12577262B2, “Functionalized gold carbene napthaquinone complexes for use in the treatment of cancer” (Board of Regents, The University of Texas System, priority 2019, dated 2026)
